The text below walks through data of patent publication US8440708B2, “Triazole-substituted arylamides as P2X3 and P2X2/3 antagonists” (Roche Palo Alto LLC, priority 2007, dated 2013).

The target of one experiment is T1, rat P2X3 receptor (Rattus norvegicus, UniProt P49654).
T1 construct: expressed in transfected cells; host or cells: CHO-K1
T1 sequence (P49654 1-397): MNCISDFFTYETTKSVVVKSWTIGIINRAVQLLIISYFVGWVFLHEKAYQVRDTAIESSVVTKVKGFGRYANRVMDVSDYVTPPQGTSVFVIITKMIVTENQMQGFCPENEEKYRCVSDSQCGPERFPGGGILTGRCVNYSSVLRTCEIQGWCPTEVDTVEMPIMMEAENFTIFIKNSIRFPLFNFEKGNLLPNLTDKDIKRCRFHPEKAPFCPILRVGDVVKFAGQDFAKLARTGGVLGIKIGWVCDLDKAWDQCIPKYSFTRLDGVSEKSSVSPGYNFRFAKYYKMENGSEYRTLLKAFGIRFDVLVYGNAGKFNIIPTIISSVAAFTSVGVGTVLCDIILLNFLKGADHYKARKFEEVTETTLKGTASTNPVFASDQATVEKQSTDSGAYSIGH
As to the kind of experiment: P2X3/P2X2/3 FLIPR (Fluorometric Imaging Plate Reader) Assay, P2X3. The following applies: CHO-K1 cells transfected with rat P2X3; agonist α,β-meATP 1 μM; Table 1; read-out: P2X3 pKi (converted). Type of experiment: cell-based. The procedure, abridged: (§1)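 Transfected CHO-K1 (rat P2X3; human P2X2/3), Fluo-3 AM 2 μM 1 h 37 °C, buffer HBSS/10 mM HEPES/2 mM CaCl2/2.5 mM probenecid. Cpd 20 min RT, then α,β-meATP 1 μM (P2X3) / 5 μM (P2X2/3). Peak Ca2+ signal, nonlinear regression.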

For another experiment, the target named is T2, human P2X2/3 receptor (Homo sapiens, UniProt P56373+Q9UBL9).
T2 construct: expressed in transfected cells; host or cells: CHO-K1
T2 sequence (Q9UBL9 1-471): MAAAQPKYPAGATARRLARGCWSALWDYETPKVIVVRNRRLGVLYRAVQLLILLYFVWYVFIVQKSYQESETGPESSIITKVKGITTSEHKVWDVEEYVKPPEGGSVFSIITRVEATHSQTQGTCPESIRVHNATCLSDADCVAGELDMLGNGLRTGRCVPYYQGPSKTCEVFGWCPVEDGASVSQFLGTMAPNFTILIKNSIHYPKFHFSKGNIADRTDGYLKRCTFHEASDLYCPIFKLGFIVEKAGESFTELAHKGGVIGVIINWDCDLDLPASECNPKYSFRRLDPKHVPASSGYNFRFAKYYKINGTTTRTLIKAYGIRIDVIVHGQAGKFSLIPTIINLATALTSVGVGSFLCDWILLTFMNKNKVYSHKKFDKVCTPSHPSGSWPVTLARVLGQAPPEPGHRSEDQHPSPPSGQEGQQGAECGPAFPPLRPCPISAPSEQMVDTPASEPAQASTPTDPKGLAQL
T2 sequence (P56373 1-397): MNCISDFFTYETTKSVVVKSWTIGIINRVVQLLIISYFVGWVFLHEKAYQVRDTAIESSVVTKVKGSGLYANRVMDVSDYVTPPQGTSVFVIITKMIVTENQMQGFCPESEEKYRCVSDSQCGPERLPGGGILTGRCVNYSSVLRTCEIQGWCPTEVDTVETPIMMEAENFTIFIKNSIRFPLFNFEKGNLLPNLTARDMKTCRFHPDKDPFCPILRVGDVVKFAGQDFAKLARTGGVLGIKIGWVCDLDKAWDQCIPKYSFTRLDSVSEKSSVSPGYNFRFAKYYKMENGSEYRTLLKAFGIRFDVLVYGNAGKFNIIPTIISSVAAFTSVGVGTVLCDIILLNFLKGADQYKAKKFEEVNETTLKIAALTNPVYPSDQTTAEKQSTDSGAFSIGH
As to the kind of experiment: P2X3/P2X2/3 FLIPR (Fluorometric Imaging Plate Reader) Assay, P2X2/3. Type of experiment: cell-based. To be noted: CHO-K1 cells transfected with human P2X2/3; agonist α,β-meATP 5 μM; Table 1; read-out: P2X2/3 pKi (converted). The procedure, abridged:
as §1

Molecules are shown by their SMILES.

Turning to `CC(C)Cc1ncnn1-c1cc(C(=O)NC(C)c2cnccn2)cc(-c2ccc(Cl)cn2)c1` (stereo not shown) [Compound 74, 3-(5-Chloro-pyridin-2-yl)-5-(5-isobutyl-[1,2,4]triazol-1-yl)-N-(1-pyrazin-2-yl-ethyl)-benzamide], the Ki at rat P2X3 receptor is 0.00417 µM; on human P2X2/3 receptor, 0.0603 µM.

Take `Cc1ccc(-c2cc(C(=O)NCc3cnc(C)cn3)cc(-n3ncnc3C(F)(F)F)c2F)nc1` [Compound 164, 4-Fluoro-N-(5-methyl-pyrazin-2-ylmethyl)-3-(5-methyl-pyridin-2-yl)-5-(5-trifluoromethyl-[1,2,4]triazol-1-yl)-benzamide]: the Ki on rat P2X3 receptor was 0.0115 µM; at human P2X2/3 receptor, 0.302 µM.

As to `Cc1ccc(-c2cc(C(=O)NCc3cnc(C)cn3)cc(-c3ncnn3C(C)C)c2)cc1` [Compound 137, 5-(2-Isopropyl-2H-[1,2,4]triazol-3-yl)-4′-methyl-biphenyl-3-carboxylic acid (5-methyl-pyrazin-2-ylmethyl)-amide], the Ki at rat P2X3 receptor was 0.0115 µM; at human P2X2/3 receptor, 0.398 µM.

Regarding `Cc1ccc(-c2cc(C(=O)N[C@@H](C)CO)cc(-n3nncc3C(C)C)c2)cc1` [Compound 8, 5-(5-Isopropyl-[1,2,3]triazol-1-yl)-4′-methyl-biphenyl-3-carboxylic acid ((S)-2-hydroxy-1-methyl-ethyl)-amide], the figures for the Ki on rat P2X3 receptor and on human P2X2/3 receptor were 0.00372 µM and 0.309 µM, respectively.

Take `Cc1ccc(-c2cc(C(=O)NC3CC3)cc(-n3ncnc3C(C)N(C)C)c2)nc1` (stereo not shown) [Compound 139, N-Cyclopropyl-3-[5-(1-dimethylamino-ethyl)-[1,2,4]triazol-1-yl]-5-(5-methyl-pyridin-2-yl)-benzamide]: the Ki at rat P2X3 receptor was 0.0275 µM; at human P2X2/3 receptor it was 1.7 µM.

Consider `CCCc1ncnn1-c1cc(C(=O)NC2CC2)cc(-c2ccc(Cl)cn2)c1` [Compound 112, 3-(5-Chloro-pyridin-2-yl)-N-cyclopropyl-5-(5-propyl-[1,2,4]triazol-1-yl)-benzamide], for which the Ki was 0.0102 µM on rat P2X3 receptor and 1.86 µM on human P2X2/3 receptor.

As for `Cc1ccc(-c2cc(C(=O)NCc3cnc(C)cn3)cc(-n3ncnc3CC(C)C)c2)nc1` [Compound 119, 3-(5-Isobutyl-[1,2,4]triazol-1-yl)-N-(5-methyl-pyrazin-2-ylmethyl)-5-(5-methyl-pyridin-2-yl)-benzamide], the values for the Ki on rat P2X3 receptor and on human P2X2/3 receptor were 0.00355 µM and 0.0234 µM, respectively.

Consider `Cc1ccc(-c2cc(C(=O)NC(C)c3cnccn3)cc(-c3ncnn3C(C)C)c2)cc1` (stereo not shown) [Compound 53, 5-(2-Isopropyl-2H-[1,2,4]triazol-3-yl)-4′-methyl-biphenyl-3-carboxylic acid (1-pyrazin-2-yl-ethyl)-amide], for which the results for the Ki at rat P2X3 receptor and at human P2X2/3 receptor were 0.0129 µM and 0.309 µM, respectively.

On to `Cc1ccc(-c2cc(C(=O)NCc3cnc(C)cn3)cc(-n3ncnc3C3CN(C)C3)c2)nc1` [Compound 157, 3-[5-(1-Methyl-azetidin-3-yl)-[1,2,4]triazol-1-yl]-N-(5-methyl-pyrazin-2-ylmethyl)-5-(5-methyl-pyridin-2-yl)-benzamide], for which the Ki is 0.676 µM at rat P2X3 receptor and 10 µM at human P2X2/3 receptor.

Regarding `Cc1ccc(-c2cc(C(=O)NCc3cnc(C)cn3)cc(-n3ncnc3C(C)(F)F)c2)nc1` [Compound 69, 3-[5-(1,1-Difluoro-ethyl)-[1,2,4]triazol-1-yl]-N-(5-methyl-pyrazin-2-ylmethyl)-5-(5-methyl-pyridin-2-yl)-benzamide], the Ki on rat P2X3 receptor is 0.00186 µM; on human P2X2/3 receptor it was 0.0269 µM.

Turning to `CC(C)c1ncnn1-c1cc(C(=O)NC(C)c2cnccn2)cc(-c2ccc(Cl)cn2)c1` (stereo not shown) [Compound 120, 3-(5-Chloro-pyridin-2-yl)-5-(5-isopropyl-[1,2,4]triazol-1-yl)-N-(1-pyrazin-2-yl-ethyl)-benzamide], the Ki on rat P2X3 receptor is 0.00759 µM; on human P2X2/3 receptor, 0.132 µM.
